This assay concerns NL-RLuc virus. The assay is described as follows: Inhibition of HIV replication (NL-RLuc virus, luciferase readout in MT-2 cells). The conditions noted are these: Human immunodeficiency virus 1, MT2, 120 h, MT-2 cells infected with NL-RLuc virus, 5 days of incubation, 10% FBS, at least 2 experiments. Type of assay: cell-based. Put shortly: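 MT-2 cells infected with NL4-3-derived virus carrying Renilla luciferase in place of part of nef, grown 5 days with serial compound dilutions in RPMI 1640/10% FBS. Virus growth read as luciferase expression. EC50 from median effect equation, at least 2 experiments.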
For `Cc1ncc(-c2cnc(OCCCC(C)C)c(F)c2)c(N2CCC(C)(C)CC2)c1[C@H](OC(C)(C)C)C(=O)O` [Example 394, (2S)-2-(tert-butoxy)-2-[4-(4,4-dimethylpiperidin-1-yl)-5′-fluoro-6-methyl-6′-[(4-methylpentyl)oxy]-[3,3′-bipyridine]-5-yl]acetic acid], the response was half-maximal at 3 nM (EC50).

As to `Cc1cc(-c2cnc(C)c([C@H](OC(C)(C)C)C(=O)O)c2N2CCC(C)(C)CC2)ncc1OCCc1ccc(F)cc1` [Example 248, (S)-2-(tert-Butoxy)-2-(4′-(4,4-dimethylpiperidin-1-yl)-5-(4-fluorophenethoxy)-4, 6′-dimethyl-[2, 3′-bipyridin]-5′-yl)acetic acid], the EC50 (as a rule, the midpoint of the concentration-response curve) amounted to 1 nM.

For the compound `Cc1ccc(COc2ccc(-c3cnc(C)c([C@H](OC(C)(C)C)C(=O)O)c3N3CCC(C)(C)CC3)nc2)cc1` [Example 342, (2S)-2-(tert-butoxy)-2-[4′-(4,4-dimethylpiperidin-1-yl)-6′-methyl-5-[(4-methylphenyl)methoxy]-[2,3′-bipyridine]-5′-yl]acetic acid], the midpoint of the response, the EC50, lay at 2 nM.

For the compound `Cc1ncc(-c2ccc(OCCC(C)(C)C)cn2)c(N2CCC(C)(C)CC2)c1[C@H](OC(C)(C)C)C(=O)O` [Example 316, (2S)-2-(tert-butoxy)-2-[5-(3,3-dimethylbutoxy)-4′-(4,4-dimethylpiperidin-1-yl)-6′-methyl-[2,3′-bipyridine]-5′-yl]acetic acid], the response was half-maximal at 2 nM (EC50).

`Cc1nc(Nc2ncccc2F)c(-c2ccc(OCCc3ccc(F)cc3)cc2)c(N2CCC(C)(C)CC2)c1[C@H](OC(C)(C)C)C(=O)O` [Example 82, (S)-2-(tert-Butoxy)-2-(4-(4,4-dimethylpiperidin-1-yl)-5-(4-(4-fluorophenethoxy)phenyl)-6-((3-fluoropyridin-2-yl)amino)-2-methylpyridin-3-yl)acetic acid] displayed an EC50 of 2 nM. This counts as single-digit nanomolar.

Consider `CCCCCOc1ncc(-c2cnc(C)c([C@H](OC(C)(C)C)C(=O)O)c2N2CCC(C)(C)CC2)cc1F` [Example 407, (2S)-2-(tert-butoxy)-2-[4-(4,4-dimethylpiperidin-1-yl)-5′-fluoro-6-methyl-6′-(pentyloxy)-[3,3′-bipyridine]-5-yl]acetic acid], for which it took 4 nM to reach a half-maximal effect (EC50).

`Cc1nc(OCCO)c(-c2ccc(OCCc3ccc(F)cc3)cc2)c(N2CCC(C)(C)CC2)c1[C@H](OC(C)(C)C)C(=O)O` [Example 103, (S)-2-(tert-Butoxy)-2-(4-(4,4-dimethylpiperidin-1-yl)-5-(4-(4-fluorophenethoxy)phenyl)-6-(2-hydroxyethoxy)-2-methylpyridin-3-yl)acetic acid] yielded an EC50 of 2 nM.

For the compound `Cc1ccc(F)cc1CCOc1ncc(-c2cnc(C)c([C@H](OC(C)(C)C)C(=O)O)c2N2CCC(C)(C)CC2)cc1F` [Example 401, (2S)-2-(tert-butoxy)-2-[4-(4,4-dimethylpiperidin-1-yl)-5′-fluoro-6′-[2-(5-fluoro-2-methylphenyl)ethoxy]-6-methyl-[3,3′-bipyridine]-5-yl]acetic acid], the EC50 is 2 nM.

Consider `COc1cccc(-c2cnc(C)c([C@H](OC(C)(C)C)C(=O)O)c2N2CCC(C)(C)CC2)c1F` [Example 156, (2S)-2-(tert-Butoxy)-2-[4-(4,4-dimethylpiperidin-1-yl)-5-(2-fluoro-3-methoxyphenyl)-2-methylpyridin-3-yl]acetic acid], for which the concentration for a half-maximal effect (EC50) amounted to 1 nM.

Regarding `Cc1nc(C(=O)NS(=O)(=O)C2CC2)c(-c2ccc(OCCc3ccc(F)cc3)cc2)c(N2CCC(C)(C)CC2)c1[C@H](OC(C)(C)C)C(=O)O` [Example 9, (S)-2-(tert-Butoxy)-2-(6-((cyclopropylsulfonyl)carbamoyl)-4-(4,4-dimethylpiperidin-1-yl)-5-(4-(4-fluorophenethoxy)phenyl)-2-methylpyridin-3-yl)acetic acid], the EC50 stood at 380 nM.

`Cc1ncc(-c2ccncc2)c(N2CCC(C)(C)CC2)c1[C@H](OC(C)(C)C)C(=O)O` [Example 141, (2S)-2-(tert-Butoxy)-2-[4-(4,4-dimethylpiperidin-1-yl)-6-methyl-[3, 4′-bipyridine]-5-yl]acetic acid]: the response was half-maximal at 8 nM (EC50).

In turn, `CCCCNc1ccc(-c2cnc(C)c([C@H](OC(C)(C)C)C(=O)O)c2N2CCC(C)(C)CC2)cn1` [Example 437, (S)-2-tert-Butoxy-2-(6′-(butylamino)-4-(4,4-dimethylpiperidin-1-yl)-6-methyl-3, 3′-bipyridin-5-yl)acetic acid] yielded an EC50 of 9 nM.

For the compound `Cc1nc(NCC2CCN(C)CC2)c(-c2ccc(OCCc3ccc(F)cc3)cc2)c(N2CCC(C)(C)CC2)c1[C@H](OC(C)(C)C)C(=O)O` [Example 42, (S)-2-(tert-Butoxy)-2-(4-(4,4-dimethylpiperidin-1-yl)-5-(4-(4-fluorophenethoxy)phenyl)-2-methyl-6-(((1-methylpiperidin-4-yl)methyl)amino)pyridin-3-yl)acetic acid], the EC50 worked out at 3 nM.

In turn, `Cc1cccc(Nc2nc(C)c([C@H](OC(C)(C)C)C(=O)O)c(N3CCC(C)(C)CC3)c2-c2ccc(OCCc3ccc(F)cc3)cc2)n1` [Example 80, (S)-2-(tert-Butoxy)-2-(4-(4,4-dimethylpiperidin-1-yl)-5-(4-(4-fluorophenethoxy)phenyl)-2-methyl-6-((6-methylpyridin-2-yl)amino)pyridin-3-yl)acetic acid] yielded an EC50 of 2 nM. This EC50 is about 1.5-fold lower than that of the compound before.

Take `Cc1nn(C)cc1-c1nc(C)c([C@H](OC(C)(C)C)C(=O)O)c(N2CCC(C)(C)CC2)c1-c1ccc(OCCc2ccc(F)cc2)cc1` [Example 37, (S)-2-(tert-Butoxy)-2-(6-(1,3-dimethyl-1H-pyrazol-4-yl)-4-(4,4-dimethylpiperidin-1-yl)-5-(4-(4-fluorophenethoxy)phenyl)-2-methylpyridin-3-yl)acetic acid]: the EC50 was 2 nM.

`Cc1ccc(Nc2nc(C)c([C@H](OC(C)(C)C)C(=O)O)c(N3CCC(C)(C)CC3)c2-c2ccc(OCCc3ccc(F)cc3)cc2)nc1` [Example 78, (S)-2-(tert-Butoxy)-2-(4-(4,4-dimethylpiperidin-1-yl)-5-(4-(4-fluorophenethoxy)phenyl)-2-methyl-6-((5-methylpyridin-2-yl)amino)pyridin-3-yl)acetic acid] returned an EC50 of 6 nM.

In turn, `Cc1cccc(COc2ccc(-c3cnc(C)c([C@H](OC(C)(C)C)C(=O)O)c3N3CCC(C)(C)CC3)nc2)c1` [Example 347, (2S)-2-(tert-butoxy)-2-[4′-(4,4-dimethylpiperidin-1-yl)-6′-methyl-5-[(3-methylphenyl)methoxy]-[2,3′-bipyridine]-5′-yl]acetic acid] displayed an EC50 of 1 nM. This EC50 lies about 6-fold lower than the previous one.

In turn, `Cc1ncc(-c2cnc(OCCc3cccc(Cl)c3)c(F)c2)c(N2CCC(C)(C)CC2)c1[C@H](OC(C)(C)C)C(=O)O` [Example 371, (2S)-2-(tert-butoxy)-2-{6′-[2-(3-chlorophenyl)ethoxy]-4-(4,4-dimethylpiperidin-1-yl)-5′-fluoro-6-methyl-[3,3′-bipyridine]-5-yl}acetic acid] yielded an EC50 of 1 nM.

Compound `Cc1ncc(-c2cnc(OCCc3c(Cl)cccc3Cl)c(F)c2)c(N2CCC(C)(C)CC2)c1[C@H](OC(C)(C)C)C(=O)O` [Example 373, (2S)-2-(tert-butoxy)-2-{6′-[2-(2,6-dichlorophenyl)ethoxy]-4-(4,4-dimethylpiperidin-1-yl)-5′-fluoro-6-methyl-[3,3′-bipyridine]-5-yl}acetic acid] displayed an EC50 of 3 nM.

The values are drawn from patent US20200055839A1 (priority 2017, published 2020).
